Experiment [1] relates to MCF-7 breast cancer cells. As to the kind of experiment: Cell death and growth in MCF-7 breast cancer cell cultures. As to conditions: for MCF7 Cell Death Amount: 25 μM β-AED, 25 μM β-AET, PEG 300/LIPOFECTAMINE vehicle; for cell growth / cell density (microscopic photograph): compared to vehicle FIG. 14. In kind it is cell-based. On the procedure: (§1) Hormone dependent, noninvasive, epithelial phenotype (ER/PR positive MCF-7 breast cancer cells) and hormone independent, invasive, mesenchymal phenotype (ER/PR negative MDA-MB-231 breast cancer cell) cell suspensions were acquired and prepared in complete medium (DMEM/F12, 10% FBS, 1% penicillin/streptomycin (Gibco)). Cellular concentration was adjusted to 2×10^5 cells/mL.
(§2) Androstene hormone solutions according to embodiments of the present invention were prepared from a first solution and a second solution. For the first solution, 3.0 mg of β-AED or β-AET was added to warm PEG 300 to prepare 50 mM stock. For the second solution, 10 μL of LIPOFECTAMINE (3:1 DOSPA:DOPE) was introduced to 100 μL of PEG 300, mixed, and incubated in a water bath at 42° C. for 30 min. The first and second solutions were then mixed in a sonicator water bath at 42° C. for 1 hr. The final concentration was 50 mM β-AED (or AET, as used).
(§3) A β-estradiol solution was also prepared by adding 2.7 mg of β-estradiol to 200 μL warmed PEG 300 with LIPOFECTAMINE and then further diluted 1:1000 with PEG-300. The final concentration was 50 μM.
A diluted β-AED (or β-AET) solution was prepared with complete medium at a final concentration of 50 μM (1:1000 dilute of 50 mM). Likewise, a diluted β-E2 solution was prepared with complete medium at a final concentration of 10 nM (1:5000 dilute of 50 μM).
Using a 24-well plate, mixtures of 0.5 mL of cells per well with 0.5 mL of medium diluted hormone vehicle. Cell cultures were maintained at 90% humidity, 7% CO2, and 37° C.

The subject of experiment [2] is MDA-MB-231 breast cancer cell. As to the kind of experiment: Cell death in MDA-MB-231 breast cancer cell cultures. As to conditions: 25 μM β-AED, 25 μM β-AET, 5 nM E2; PEG 300/LIPOFECTAMINE vehicle. Type of experiment: cell-based. On the procedure:
as §1, §2, §3
A diluted β-AED (or β-AET) solution was prepared with complete medium at a final concentration of 50 μM (1:1000 dilute of 50 mM). Likewise, a diluted β-E2 solution was prepared with complete medium at a final concentration of 10 nM (1:5000 dilute of 50 μM). […]

The test system of another experiment is 293T cells. As to the kind of experiment: Biological function (phenotype, mobile cells) in 293T cells. In kind it is cell-based, human. On the procedure: A non-toxic vehicle for administration of androstene hormones according to embodiments of the present invention was prepared from a first solution and a second solution. The first solution, comprising liposomal formulation, was placed in PEG 300 to a concentration of 5% and heated in a sonicating water bath to about 45° C. The second solution, comprising a selected hormone (one or more of 5Δ-androsten-3β, 17α-diol, 5Δ-androsten-3β, 17β-diol, or 5Δ-androsten-3β,7β,17β-triol), was placed in PEG 300 and heated in a sonicating water bath to about 45° C. The first and second solutions were then combine and stirred until dissolved.
Biological function was tested in 293T cells, which is a human embryonic cell line transformed with Large T antigen […] SV40. This hypotriploid (polyploid) cell line is particularly useful in such transformation studies and has very distinct phenotypes when grown. All androstene hormone treatment applications were at concentrations of 25 μM.

[3] abbreviates: MCF-7 grown for 5 days, 25 μM androstene, 5 nM E2.
[4] abbreviates: vehicle PEG 300, androstene hormone 25 μM.

The text below walks through data of US20180207177A1, “TREATMENT OF TRIPLE NEGATIVE BREAST CANCER UTILIZING ANDROST-5-ENE-3b,17b-DIOL (b-AED), ANDROST-5-ENE-3b,7b,17b-TRIOL (b-AET) AND ESTRADIOL (E2)” (Government of the United States as Represented by the …, priority 2017, published 2018).

Turning to `C[C@]12CC[C@H]3[C@@H](CC=C4C[C@@H](O)CC[C@@]43C)[C@@H]1CC[C@@H]2O` [β-AED, androst-5-ene-3β,17β-diol], in experiment [1] (5 nM E2), the “MCF7 Cell Death Amount” value was “Not observed”. In experiment [1] (setting [3]), the “particles / cell bodies produced by cells in response to treatment” value was “small particles”; the “cell growth / cell density (microscopic photograph)” value was “not as heath and there are areas of decreased density”. Moreover, the “Additional Observation” value in experiment [1] (cell line not given, particles shown for MCF-7 in FIG. 15) was “Cell particles observed”. The “MDA-MB-231 Cell Death Amount” value in experiment [2] is listed as “Not observed”. Besides, in the experiment on 293T cells (setting [4]), the “cell islands (photograph)” value was “cell islands are larger” and the “mobile cells / cell processes (photograph)” value is on record as “significant reduction in mobile cells”. For the same molecule, the “mobile cells / mobile elements and processes (photograph)” value in the experiment on 293T cells (vehicle PEG 300 and LIPOFECTAMINE, β-AED 25 μM, E2 5 nM) is reported as “drastic decrease in, or morphological change, in mobile elements”.

For `C[C@]12CC[C@H]3[C@@H]([C@@H](O)C=C4C[C@@H](O)CC[C@@]43C)[C@@H]1CC[C@@H]2O` [β-AET, 5-androstene-3β,7β,17β-triol], the “MCF7 Cell Death Amount” value in experiment [1] (5 nM E2) was “Not observed”. Also, the “cell growth / cell density (microscopic photograph)” value in experiment [1] (setting [3]) is “thick and similar to the cell growth of FIG. 14”. In addition, in experiment [2], the “MDA-MB-231 Cell Death Amount” value is given as “Not observed”.
